Measured values from patent US6881741B2 (ViroChem Pharma Inc., priority 2001, dated 2005).
Like-named read-outs stand apart in the source and are kept apart here.

Biological target: recombinant HCV NS5B (HCV RNA-dependent RNA polymerase) (Hepatitis C virus genotype 1b, UniProt P26663)
Assay: biochemical
[1] = related polymerase activity (Example 27 list), read-out: IC50
[2] = HCV polymerase activity, list of compounds of Example 27, read-out: IC50 (polymerase activity)

Sequence of recombinant HCV NS5B (HCV RNA-dependent RNA polymerase) (P26663 2420-3010 limits assumed): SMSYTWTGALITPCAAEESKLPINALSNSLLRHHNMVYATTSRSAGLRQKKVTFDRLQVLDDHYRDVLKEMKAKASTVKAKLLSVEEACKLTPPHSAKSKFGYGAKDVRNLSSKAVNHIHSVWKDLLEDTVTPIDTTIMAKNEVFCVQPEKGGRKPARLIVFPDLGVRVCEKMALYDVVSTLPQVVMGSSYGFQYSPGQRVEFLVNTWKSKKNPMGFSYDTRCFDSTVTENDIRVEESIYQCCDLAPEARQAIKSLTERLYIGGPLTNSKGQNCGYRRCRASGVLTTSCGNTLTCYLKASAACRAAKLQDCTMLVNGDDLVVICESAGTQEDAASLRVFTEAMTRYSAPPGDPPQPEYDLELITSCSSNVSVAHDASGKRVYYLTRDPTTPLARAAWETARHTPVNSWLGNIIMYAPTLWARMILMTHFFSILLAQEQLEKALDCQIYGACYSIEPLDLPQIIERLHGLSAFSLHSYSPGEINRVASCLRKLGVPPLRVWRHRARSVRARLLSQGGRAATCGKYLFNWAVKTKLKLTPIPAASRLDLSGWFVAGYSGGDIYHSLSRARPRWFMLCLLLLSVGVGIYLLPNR

SMILES	IC50 [1] [µM]	IC50 [2] [µM]
CN(C(=O)c1ccc(F)cc1F)c1cc(-c2ccccc2)sc1C(=O)O [Compound 78, 3-[(2,4-DIFLUORO-BENZOYL)-METHYL-AMINO]-5-PHENYL-THIOPHENE-2-CARBOXYLIC ACID]	5 to 20	–
CC(C)N(C(=O)c1ccc(Cl)cc1O)c1cc(-c2ccccc2)sc1C(=O)O [Compound 313, 3-[(4-CHLORO-2-HYDROXY-BENZOYL)- ISOPROPYL-AMINO]-5-PHENYL- THIOPHENE-2-CARBOXYLIC ACID]	< 5	–
CC(C)N(C(=S)c1ccc(Cl)cc1Cl)c1cc(-c2ccccc2)sc1C(=O)O [Compound 297, 3-[(2,4-DICHLORO-THIOBENZOYL)-ISOPROPYL-AMINO]-5-PHENYL-THIOPHENE-2-CARBOXYLIC ACID]	< 5	–
Cc1ccccc1S(=O)(=O)Nc1cc(/C=C/c2ccccc2)sc1C(=O)O [Compound 108, 5-STYRYL-3-(TOLUENE-2-SULFONYLAMINO)-THIOPHENE-2-CARBOXYLIC ACID]	< 5	–
Cc1ccc(C(=O)N(C)c2cc(-c3cc(F)cc(F)c3)sc2C(=O)O)cc1 [Compound 212, 5-(3,5-DIFLUORO-PHENYL)-3-[METHYL-(4-METHYL-BENZOYL)-AMINO]-THIOPHENE-2-CARBOXYLIC ACID]	< 5	–
Cc1ccc(C(=O)N(C)c2cc(-c3cccnc3)sc2C(=O)O)cc1 [Compound 302, 3-[METHYL-(4-METHYL-BENZOYL)- AMINO]-5-PYRIDIN-3-YL-THIOPHENE-2- CARBOXYLIC ACID]	5 to 20	–
CC(C1CCN(C(=O)OCc2ccccc2)CC1)N(C(=O)c1ccc(Cl)cc1Cl)c1cc(-c2ccccc2)sc1C(=O)O (stereo not shown) [Compound 523, 4-{1-[(2-CARBOXY-5-PHENYL-THIOPHEN- 3-YL)-(2,4-DICHLORO-BENZOYL)-AMINO]- ETHYL}-PIPERIDINE-1-CARBOXYLIC ACID BENZYL ESTER]	–	5 to 20
Cc1ccc(C(=O)N(C)c2cc(-c3cccc(F)c3)sc2C(=O)O)cc1 [Compound 213, 5-(3-FLUORO-PHENYL)-3-[METHYL-(4-METHYL-BENZOYL)-AMINO]-THIOPHENE-2-CARBOXYLIC ACID]	< 5	–
O=C(O)c1sc(-c2ccccc2)cc1NC(=O)N1CCN(c2ccccc2Cl)CC1 [Compound 159, 3-{[4-(2-CHLORO-PHENYL)-PIPERAZINE-1-CARBONYL]-AMINO}-5-PHENYL-THIOPHENE-2-CARBOXYLIC ACID]	5 to 20	–
Cc1ccccc1S(=O)(=O)Nc1cc(-c2cc(F)cc(F)c2)sc1C(=O)O [Compound 69, 5-(3,5-DIFLUORO-PHENYL)-3-(TOLUENE-2-SULFONYLAMINO)-THIOPHENE-2-CARBOXYLIC ACID]	< 5	–
Cc1ccccc1S(=O)(=O)Nc1cc(-c2cn[nH]c2)sc1C(=O)O [Compound 170, 5-(1H-PYRAZOL-4-YL)-3-(TOLUENE-2-SULFONYLAMINO)-THIOPHENE-2-CARBOXYLIC ACID]	< 5	–
Cc1ccccc1S(=O)(=O)Nc1cc(-c2cc(NS(=O)(=O)c3ccccc3C)c(C(=O)O)s2)sc1C(=O)O [Compound 161, 4,4′-BIS-(TOLUENE-2-SULFONYLAMINO)-[2,2′]BITHIOPHENYL-5,5′-DICARBOXYLIC ACID]	< 5	–
CCCC(=O)N(Cc1cccc(Cl)c1)c1cc(-c2ccccc2)sc1C(=O)O [Compound 482, 3-[BUTYRYL-(3-CHLORO-BENZYL)- AMINO]-5-PHENYL-THIOPHENE-2- CARBOXYLIC ACID]	–	< 5
CC(C)N(C(=O)c1ccc(C(F)(F)F)cc1)c1cc(-c2ccccc2)sc1C(=O)O [Compound 243, 3-[ISOPROPYL-(4-TRIFLUOROMETHYL-BENZOYL)-AMINO]-5-PHENYL-THIOPHENE-2-CARBOXYLIC ACID]	< 5	–
CC(=O)c1cccc(-c2cc(N(C)C(=O)c3ccc(C)cc3)c(C(=O)O)s2)c1 [Compound 272, 5-(3-ACETYL-PHENYL)-3-[METHYL-(4-METHYL-BENZOYL)-AMINO]-THIOPHENE-2-CARBOXYLIC ACID]	5 to 20	–
O=C(O)c1sc(-c2ccc(Cl)cc2)cc1NS(=O)(=O)c1ccccn1 [Compound 116, 5-(4-CHLORO-PHENYL)-3-(PYRIDINE-2-SULFONYLAMINO)-THIOPHENE-2-CARBOXYLIC ACID]	5 to 20	–
O=C(O)c1sc(-c2ccc(F)cc2)cc1NS(=O)(=O)c1ccc(F)cc1F [Compound 110, 3-(2,4-DIFLUORO-BENZENESULFONYLAMINO)-5-(4-FLUORO-PHENYL)-THIOPHENE-2-CARBOXYLIC ACID]	< 5	–
CC(C)N(C(=O)[C@@H]1CC[C@@H](C)C[C@@H]1O)c1cc(-c2ccccc2)sc1C(=O)O [Compound 540, 3-[((1R,2S,4R)-2-HYDROXY-4-METHYL- CYCLOHEXANECARBONYL)-ISOPROPYL- AMINO]-5-PHENYL-THIOPHENE-2- CARBOXYLIC ACID]	–	< 5
C=Cc1cc(C)ccc1C(=O)N(c1cc(-c2ccccc2)sc1C(=O)O)C(C)C [Compound 395, 3-[ISOPROPYL-(4-METHYL-2-VINYL- BENZOYL)-AMINO]-5-PHENYL- THIOPHENE-2-CARBOXYLIC ACID]	5 to 20	–

SMILES	IC50 [1] [µM]	IC50 [2] [µM]
COc1ccc(-c2cc(N(C(=O)C3CCC(C)CC3)C(C)C)c(C(=O)O)s2)cc1 (stereo not shown) [Compound 577, 3-[ISOPROPYL-(4-METHYL- CYCLOHEXANECARBONYL)-AMINO]-5-(4- METHOXY-PHENYL)-THIOPHENE-2- CARBOXYLIC ACID]	–	< 5
CCOC(=O)c1c(C)c(S(=O)(=O)Nc2cc(-c3ccccc3)sc2C(=O)O)c(-c2ccc(Cl)cc2)n1-c1ccccc1 [Compound 168, 4-(2-CARBOXY-5-PHENYL-THIOPHEN-3-YLSULFAMOYL)-5-(4-CHLORO-PHENYL)-3-METHYL-1-PHENYL-1H-PYRROLE-2-CARBOXYLIC ACID ETHYL ESTER]	5 to 20	–
COc1ccc(N2CCN(C(=O)Nc3cc(-c4ccccc4)sc3C(=O)O)CC2)cc1 [Compound 181, 3-{[4-(4-METHOXY-PHENYL)-PIPERAZINE-1-CARBONYL]-AMINO}-5-PHENYL-THIOPHENE-2-CARBOXYLIC ACID]	5 to 20	–
Cc1ccccc1S(=O)(=O)Nc1cc(-c2ccc(F)c(Cl)c2)sc1C(=O)O [Compound 91, 5-(3-CHLORO-4-FLUORO-PHENYL)-3-(TOLUENE-2-SULFONYLAMINO)-THIOPHENE-2-CARBOXYLIC ACID]	5 to 20	–
O=C(O)c1sc(-c2ccccc2)cc1N(Cc1ccc(F)cc1F)C(=O)C1CCCCC1 [Compound 490, 3-[CYCLOHEXANECARBONYL-(2,4- DIFLUORO-BENZYL)-AMINO]-5-PHENYL- THIOPHENE-2-CARBOXYLIC ACID]	–	< 5
O=C(O)c1sc(-c2ccccc2)cc1NC(=O)N1CCN(c2cccc(C(F)(F)F)c2)CC1 [Compound 156, 5-PHENYL-3-{[4-(3-TRIFLUOROMETHYL-PHENYL)-PIPERAZINE-1-CARBONYL]-AMIN}-THIOPHENE-2-CARBOXYLIC ACID]	5 to 20	–
COCC(=O)N(Cc1cccc(Cl)c1)c1cc(-c2ccccc2)sc1C(=O)O [Compound 478, 3-[(3-CHLORO-BENZYL)-(2-METHOXY- ACETYL)-AMINO]-5-PHENYL-THIOPHENE- 2-CARBOXYLIC ACID]	–	> 20
O=C(O)c1sc(-c2ccccc2)cc1NS(=O)(=O)c1ccccc1OC(F)(F)F [Compound 31, 5-PHENYL-3-(2-TRIFLUOROMETHOXY-BENZENESULFONYLAMINO)-THIOPHENE-2-CARBOXYLIC ACID]	> 20	–
Cc1ccc(N(C)C(=O)c2cc(-c3ccccc3)sc2C(=O)O)cc1 [Compound 584, 3-(METHYL-P-TOLYL-CARBAMOYL)-5- PHENYL-THIOPHENE-2-CARBOXYLIC ACID]	–	5 to 20
Cc1ccc(S(=O)(=O)Nc2cc(-c3ccc(Cl)cc3)sc2C(N)=O)cc1 [Compound 563, 5-(4-CHLORO-PHENYL)-3-(TOLUENE-4- SULFONYLAMINO)-THIOPHENE-2- CARBOXYLIC ACID AMIDE]	–	5 to 20
COc1ccc(-c2cc(NS(=O)(=O)c3ccc(C)cc3C)c(C(=O)O)s2)cc1 [Compound 361, 3-(2,4-DIMETHYL- BENZENESULFONYLAMINO)-5-(4- METHOXY-PHENYL)-THIOPHENE-2- CARBOXYLIC ACID]	< 5	–
O=C(O)c1sc(-c2ccccc2)cc1NS(=O)(=O)c1cccc(Cl)c1 [Compound 40, 3-(3-CHLORO-BENZENESULFONYLAMINO)-5-PHENYL-THIOPHENE-2-CARBOXYLIC ACID]	< 5	–
COc1ccc(C(=O)N(C)c2cc(-c3ccccc3)sc2C(=O)O)cc1OC [Compound 276, 3-[(3,4-DIMETHOXY-BENZOYL)-METHYL-AMINO]-5-PHENYL-THIOPHENE-2-CARBOXYLIC ACID]	> 20	–
O=C(O)c1sc(-c2ccccc2)cc1N(Cc1cccc(Cl)c1)C(=O)C1CCC1 [Compound 481, 3-[(3-CHLORO-BENZYL)- CYCLOBUTANECARBONYL-AMINO]-5- PHENYL-THIOPHENE-2-CARBOXYLIC ACID]	–	5 to 20
CC1CCC(C(=O)N(c2cc(-c3ccccc3)sc2C(=O)O)C2COC(C)(C)OC2)CC1 (stereo not shown) [Compound 517, 3-[(2,2-DIMETHYL-[1,3]DIOXAN-5-YL)-(4- METHYL-CYCLOHEXANECARBONYL)- AMINO]-5-PHENYL-THIOPHENE-2- CARBOXYLIC ACID]	–	< 5
CN(C(=O)c1ccc(Cl)nc1Cl)c1cc(-c2ccccc2)sc1C(=O)O [Compound 245, 3-[(2,6-DICHLORO-PYRIDINE-3-CARBONYL)-METHYL-AMINO]-5-PHENYL-THIOPHENE-2-CARBOXYLIC ACID]	5 to 20	–
O=C(O)c1sc(-c2ccccc2)cc1NC(=O)N1CCC2(CC1)C(=O)NCN2c1ccccc1 [Compound 112, 3-[(4-OXO-1-PHENYL-1,3,8-TRIAZA-SPIRO[4,5]DECANE-8-CARBONYL)-AMINO]-5-PHENYL-THIOPHENE-2-CARBOXYLIC ACID]	< 5	–
CC(C1CCNCC1)N(C(=O)c1ccc(Cl)cc1Cl)c1cc(-c2ccccc2)sc1C(=O)O (stereo not shown) [Compound 529, 3-[(2,4-DICHLORO-BENZOYL)-(1- PIPERIDIN-4-YL-ETHYL)-AMINO]-5- PHENYL-THIOPHENE-2- CARBOXYLIC ACID; COMPOUND WITH TRIFLUORO-ACETIC ACID]	–	< 5
